The results in this text go back to patent publication US20190350955A1, “METHODS AND PHARMACEUTICAL COMPOSITIONS FOR THE TREATMENT OF CARDIOMYOPATHIES” (INSERM (Institut National de la Sante et de la Recherche …, priority 2016, published 2019).

Holding throughout (format): in vivo, mouse
The subject of one assay is Lmna^WT/WT mice. The assay is described as follows: NAD+ content quantification in heart and liver of treated wild type mice. The note with it: NR diet same dosage (400 mg/kg/day), 9 weeks. The protocol: Mice were bred in an accredited animal facility (accreditation number: C-75-13-08). All experiments on mice were approved by the Comité d'éthique en expérimentation animate Charles Darwin No 5. Mice Lmna^H222P/H222P were backcrossed 8 times to 129S2/SvPasOrlRj strain mice to obtain pure genetic background. Male mice used for the studies were maintained under a 12 h light/12 h dark cycle at constant temperature (23° C.) with free access to food and water. Nicotinamide riboside (NR) complementation: Animals at 17 weeks of age were fed for 9 weeks with either a chow diet (A04: Scientific Animal Food & Engineering) or a chow diet complemented with 0.25% of NR (kindly provided by ChromaDex, Inc. California) corresponding to a dose of 400 mg/kg/day for a mouse weighing 25 g eating 4 g of food per day. […]
Fresh mouse tissues were homogenized and processed according to previous report (Sander B J, Oelshlegel F J & Brewer G J (1976) Quantitative analysis of pyridine nucleotides in red blood cells: a single-step extraction procedure. Anal. Biochem. 71: 29-36). The concentration of NAD+ in heart tissue was determined using a spectrophotometric assay at 550 nm based on an alcohol dehydrogenase cycling reaction, in which a Methyl Thiazolyl Tetrazolium (MTT) is reduced to Formazan. […]

The test system of another assay is Lmna^H222P/H222P mice. As to the kind of experiment: qPCR of cardiac remodeling markers Myh7, Nppa, Col1a2 in heart. Particulars: NR diet 9 weeks vs chow-diet. The protocol: Mice were bred in an accredited animal facility (accreditation number: C-75-13-08). All experiments on mice were approved by the Comité d'éthique en expérimentation animate Charles Darwin No 5. Mice Lmna^H222P/H222P were backcrossed 8 times to 129S2/SvPasOrlRj strain mice to obtain pure genetic background. Male mice used for the studies were maintained under a 12 h light/12 h dark cycle at constant temperature (23° C.) with free access to food and water. Nicotinamide riboside (NR) complementation: Animals at 17 weeks of age were fed for 9 weeks with either a chow diet (A04: Scientific Animal Food & Engineering) or a chow diet complemented with 0.25% of NR (kindly provided by ChromaDex, Inc. California) corresponding to a dose of 400 mg/kg/day for a mouse weighing 25 g eating 4 g of food per day. Nicotinamide (NAM) treatment: Animals at 17 weeks of age were injected intraperitoneally (IP) every two days (q.a.d.) for 9 weeks with either physiologic serum or physiologic serum added with NAM at 50 mg/ml corresponding to a dose of 500 mg/kg for a mouse weighing 25 g.
Total RNAs were extracted from around 5 mg of mouse heart using RNeasy Mini kit (Qiagen). RNAs integrity were controlled on the Bioanalyzer 2100 (Agilent). […] Relative mRNA transcript levels calculated using the 2^ΔCT method were normalized by comparison to housekeeping mRNA.

Another assay deals with SRF^HKO mice. As to the kind of experiment: Myocardial NAD+ levels in SRF HKO mice (NAD recycling assay). The text has this:
Transgenic mice. All experiments with animals conformed to the Directive 2010/63/EU of the European Parliament and were approved by the ethics committee Charles Darvin #5 (agreement 00369.01). SRF^HKO mice bear the tamoxifen-inducible α-MHC-MerCrMer transgene and the Siffloxed allele (Sf/Sf) as described previously (Parlakian et al. (2005). Temporally controlled onset of dilated cardiomyopathy through disruption of the SRF gene in adult heart. Journal 112, 2930-2939; Tritsch et al. (2013). An SRF/miR-1 axis regulates NCX1 and Annexin A5 protein levels in the normal and failing heart. Journal 98, 372-380). Transgenic mice have been bred for more than 20 generations in C57BL/6N background. The mice were housed in standard animal facility (CEF. Hôpital Pitié Salpétrière, agreement A-75-13-15, 75013 Paris), under a 12-h dark/light cycle. Tamoxifen (Sigma T5648) was administrated by i.p. injection at a dose of 0.7 mg diluted in 100 μl peanut oil at day (D) 0, D1 and D2. […]
Tissue frozen powder was resuspended in 75% ethanol, 25% HEPES 10 mM pH 7.1, buffer (20 μl/mg of tissue). […] After adjustment of dilution factors, NADH levels were calculated by substracting the NAD^+ concentration to the non-heated ethanolic extract values: NADH=NADt (non heated)−NAD^+ (heated).
For both types of extracts (buffered ethanol or HClO4) we added 100 μL of reaction buffer (600 mM ethanol, 0.5 mM 3-(4.5-dimethylthiazol-2-yl)-2.5-diphenyltetrazolium bromide (MTT), 2 mM phenazine ethosulfate (PES), 120 mM Bicine (pH 7.8), yeast alcohol dehydrogenase (SIGMA A3263>300 u/mg.) 0.05 mg/ml. Kinetics of the reaction (OD at 550 nm, every 30 seconds for 40 minutes) was followed on a TECAN Infinite F500 microplate reader. NAD was quantified in duplicates for each sample by comparison to a range of standard NAD^+ concentration using linear regression curve equation method between NAD^+ standard concentrations and the slope of the reaction in OD units/sec. […] Cell extracts were quantified for protein concentration determined by Bradford assay.

As to `NC(=O)c1ccc[n+]([C@@H]2O[C@H](CO)[C@@H](O)[C@H]2O)c1` [NR, nicotinamide riboside], the “cellular NAD+ content in liver and heart” value with Lmna^WT/WT mice is recorded as “same significant benefit”. Further, in the assay with Lmna^H222P/H222P mice, the “expression of Myh7, Nppa and Col1a2 (markers of cardiac remodeling)” value is “significant lowering”. Further, in the assay on SRF^HKO mice (NR-enriched food (0.22%) from D5 to D50), the “myocardial NAD” value is listed as “protected against the drop in NAD”. In addition, the “myocardial NAD+ levels” value is “rescued” in the assay on SRF^HKO mice (NR-supplemented diet for 2 weeks from D5 to D20) and “preserved” in the assay on SRF^HKO mice (i.p. daily 1 μmole/g body weight from D8 to D15 after SRF inactivation).
